The source of these data is patent US9981916B2 (Genentech, Inc., priority 2013, dated 2018).

For orientation: IC50 means the concentration at which inhibition is half-maximal.

The target in the assay is T1, RORc ligand binding domain (Homo sapiens, UniProt P51449).
T1 construct: host or cells: E. coli
T1 sequence (P51449 269-508 limits assumed): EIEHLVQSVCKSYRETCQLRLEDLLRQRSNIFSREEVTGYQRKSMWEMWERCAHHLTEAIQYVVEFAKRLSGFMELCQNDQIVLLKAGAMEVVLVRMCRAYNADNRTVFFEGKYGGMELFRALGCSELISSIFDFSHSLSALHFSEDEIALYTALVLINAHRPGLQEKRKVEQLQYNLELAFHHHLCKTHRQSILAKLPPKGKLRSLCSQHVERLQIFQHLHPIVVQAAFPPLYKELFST
The experiment in a line: In vitro RORc ligand binding assay (25-[3H]hydroxycholesterol displacement, filter binding). Conditions: 6 nM 25-[3H]hydroxycholesterol, 0.6 ug/mL RORc receptor, 3 h at 25° C. On the procedure: Example 17: In Vitro RORc Ligand Binding Assay
This assay was used to determine a compound's potency in inhibiting activity of RORc by determining, Kiapp, IC50, or percent inhibition values.
On day of the assay, 100 uL of 0.05% CHAPS (in deionized H2O) was added to all wells of the GFB Unifilter plate and allowed soak for 1 h. A wash buffer of 50 mM HEPES (pH 7.4), 150 mM NaCl, and 5 mM MgCl2 was prepared to wash the filter plate. To prepare an assay buffer, BSA was added to the wash buffer to reach 0.01% and DTT was added to reach 1 mM.
For IC50 mode, 10 mM compound stocks were serially diluted in DMSO with DMSO to give 20× required final concentration in DMSO (15 uL compound+30 uL DMSO). The 20× compound stocks were diluted in DMSO with Assay Buffer 4-fold to reach 5× the final test concentration in 25% DMSO (10 uL compound+30 uL Assay Buffer). Solutions were mixed by aspiration several times with a pipette set on 50 uL volume. For the assay, 10 uL of 5× compound stock solutions in 25% DMSO were added to the assay plate in duplicate.
For two point screening, 10 mM stock compound solutions were diluted in DMSO to obtain 200 uM (20× the high test concentration) and then diluted 10-fold further to reach 20 uM (20× the low test concentration). The 20× stocks were diluted 4-fold with Assay Buffer (10 uL compound+30 uL Assay Buffer) to reach 5× the test concentrations (50 uM and 5 uM) and 10 uL were added to two assay plates for the duplicate wells. With each concentration tested on 2 plates, each set of 80 compounds used 4 assay plates (1 uM and 10 uM, with n=2).
25-hydroxycholesterol (1 uM) was used to determine the level of NSB signal is prepared in DMSO as for compounds above, then diluted in Assay Buffer to give a final concentration of 5 uM. For 25-hydroxycholesterol in 25% DMSO/75% Assay Buffer; 10 uL per well was used for NSB samples. Wells for Total Binding and No Receptor sample determination contained 10 uL of 25% DMSO/75% Assay Buffer per well.
25-[^3H]hydroxycholesterol was diluted in Assay Buffer to obtain 15 nM and vortex to mix. Add 20 uL to all wells to reach 6 nM final concentration in the assay.
Stock receptor solution was diluted in assay buffer to obtain 1.5 ug/mL in Assay Buffer. 20 uL was added to all wells. For No Receptor samples, 20 uL Assay Buffer was substituted for receptor solution.
Assay plates were 96-well polypropylene V-bottom plates. 10 uL of 5× compound in 25% DMSO/75% Assay Buffer was added to Test wells. 10 uL of 25% DMSO/75% Assay Buffer was added to Total Binding or No Receptor wells. 10 uL of 5 uM 25-hydroxycholesterol in 25% DMSO/75% Assay Buffer was added to NSB wells. 20 uL of 15 nM 25-[^3H]hydroxycholesterol prepared in Assay Buffer was added to all wells. 20 uL of 1.5 ug/mL RORc receptor was added to wells (or […] Assay Buffer to No R wells). Following addition to the wells, the plates were incubated 3 h at 25° C.
Using a Packard Filtermate Harvester, the filter plate were washed 4 times following transfer of the incubated samples. Plates were dry-filtered completely (2 h at 50° C. or overnight at room temperature). 50 uL Microscint 0 was added to all wells and read on Topcount protocol Inverted.
Final concentrations were as follows: 50 mM HEPES buffer (pH 7.4); 150 mM NaCl; 1 mM DTT; 5 mM MgCl2; 0.01% BSA; 5% DMSO; 0.6 ug/mL RORc receptor; 6 nM 25-[^3H]hydroxycholesterol. For NSB wells, 1 uM 25-hydroxycholesterol was also present.
With `CC(=O)OCC1(C)[C@@H]2CC[C@@]1(C)c1nnc(-c3ccccc3F)cc12` (stereo partly shown), the IC50 was determined as 2460 nM. To `CC1(C)[C@H]2CC[C@]1(Cc1nnc(CO)o1)c1nnc(-c3c(F)cccc3F)cc12` (stereo in doubt) [Example 76, (5-{[(5R,8R)-3-(2,6-difluorophenyl)-9,9-dimethyl-6,7-dihydro-5,8-methanocinnolin-8(5H)-yl]methyl}-1,3,4-oxadiazol-2-yl)methanol] belongs 388 nM.

In turn, `CC1(C)[C@H]2CC[C@]1(C(=O)Nc1ccc(C#N)nc1)c1nnc(-c3ccccc3F)cc12` (stereo in doubt) [Example 169, (5R,8R)-N-(6-cyanopyridin-3-yl)-3-(2-fluorophenyl)-9,9-dimethyl-5,6,7,8-tetrahydro-5,8-methanocinnoline-8-carboxamide] registered an IC50 of 3270 nM. `CC1(C)[C@H]2CC[C@]1(C(=O)N1CCc3cc(S(C)(=O)=O)ccc31)c1nnc(-c3ccccc3F)cc12` (stereo in doubt) [Example 170, ((5R,8R)-3-(2-fluorophenyl)-9,9-dimethyl-5,6,7,8-tetrahydro-5,8-methanocinnolin-8-yl)(5-(methylsulfonyl)indolin-1-yl)methanone] had an IC50 of 3890 nM. The figure for `CC1(C)[C@@H]2CC[C@@]1(C(=O)N1CCCC1CO)c1nnc(-c3c(F)cccc3F)cc12` (stereo in doubt) [Example 215, ((5S,8S)-3-(2,6-difluorophenyl)-9,9-dimethyl-5,6,7,8-tetrahydro-5,8-methanocinnolin-8-yl) ((R)-2-(hydroxymethyl)pyrrolidin-1-yl)methanone] is 1130 nM; for `CC1(C)C2CCC1(C(=O)N1CC(N3CC[C@H](F)C3)C1)c1nnc(-c3c(F)cccc3F)cc12` (stereo in doubt) [Example 248, ((5S,8S)-3-(2,6-difluorophenyl)-9,9-dimethyl-5,6,7,8-tetrahydro-5,8-methanocinnolin-8-yl)(3-((S)-3-fluoropyrrolidin-1-yl)azetidin-1-yl) methanone] it is 387 nM. The figure for `CC1(C)[C@H]2CC[C@]1(C)c1nnc(-c3c(F)cccc3F)cc12` [Example 1, (5R,8S)-3-(2,6-Difluorophenyl)-8,9,9-trimethyl-5,6,7,8-tetrahydro-5,8-methanocinnoline] is 114 nM; for `CC(=O)OC[C@]12CC[C@H](c3cc(-c4ccccc4F)nnc31)C2(C)C` [Example 12] it is 45 nM.

The compound `CC1(C)[C@@H]2CC[C@@]1(CC#N)c1nnc(-c3ccccc3F)cc12` [Example 16] returned an IC50 of 1550 nM. The figure for `CC1(C)[C@@H]2CC[C@@]1(Cn1ccnc1)c1nnc(-c3ccccc3F)cc12` [Example 17, (5S,8R)-3-(2-fluorophenyl)-8-(1H-imidazol-1-ylmethyl)-9,9-dimethyl-5,6,7,8-tetrahydro-5,8-methanocinnoline] is 3170 nM; for `CC1(C)[C@@H]2CC[C@@]1(CN1CCCC1=O)c1nnc(-c3ccccc3F)cc12` [Example 18, 1-{[(5S,8R)-3-(2-fluorophenyl)-9,9-dimethyl-6,7-dihydro-5,8-methanocinnolin-8(5H)-yl]methyl}pyrrolidin-2-one] it is 4810 nM. The figure for `CC(=O)O[C@H]1C[C@@H]2c3cc(-c4ccccc4F)nnc3[C@@]1(C)C2(C)C` [Example 19, (5S,7S,8R)-3-(2-fluorophenyl)-8,9,9-trimethyl-5,6,7,8-tetrahydro-5,8-methanocinnolin-7-yl acetate] is 683 nM; for `CC(=O)O[C@@H]1C[C@H]2c3cc(-c4ccccc4F)nnc3[C@]1(C)C2(C)C` [Example 20, (5R,7R,8S)-3-(2-fluorophenyl)-8,9,9-trimethyl-5,6,7,8-tetrahydro-5,8-methanocinnolin-7-yl acetate] it is 1200 nM.

Take `CC1(C)[C@@H]2CC[C@@]1(COCc1ccccc1)c1nnc(-c3c(F)cccc3Cl)cc12` [Example 21, (5S,8S)-8-[(benzyloxy)methyl]-3-(2-chloro-6-fluorohenyl)-9,9-dimethyl-5,6,7,8-tetrahydro-5,8-methanocinnoline]: the IC50 amounted to 22 nM. As to `CC(=O)OC[C@]12CC[C@H](c3cc(-c4c(F)cccc4Cl)nnc31)C2(C)C` [Example 22, [(5S,8S)-3-(2-chloro-6-fluorophenyl)-9,9-dimethyl-6,7-dihydro-5,8-methanocinnolin-8(5H)-yl]methyl acetate], the IC50 was found to be 15 nM. The figure for `CC1(C)[C@@H]2CC[C@@]1(CO)c1nnc(-c3c(F)cccc3Cl)cc12` [Example 23, [(5S,8S)-3-(2-chloro-6-fluorophenyl)-9,9-dimethyl-6,7-dihydro-5,8-methanocinnolin-8(5H)-yl]methanol] is 381 nM; for `COC[C@]12CC[C@H](c3cc(-c4c(F)cccc4Cl)nnc31)C2(C)C` [Example 24, (5S,8S)-3-(2-chloro-6-fluorophenyl)-8-(methoxymethyl)-9,9-dimethyl-5,6,7,8-tetrahydro-5,8-methanocinnoline] it is 45 nM. Consider `CCOC[C@]12CC[C@H](c3cc(-c4ccccc4F)nnc31)C2(C)C` [Example 25, (5S,8S)-8-(ethoxymethyl)-3-(2-fluorophenyl)-9,9-dimethyl-5,6,7,8-tetrahydro-5,8-methanocinnoline], for which the 50% inhibitory concentration (IC50) is 139 nM.

Turning to `COCCOC[C@]12CC[C@H](c3cc(-c4ccccc4F)nnc31)C2(C)C` [Example 26, (5S,8S)-3-(2-fluorophenyl)-8-[(2-methoxyethoxy)methyl]-9,9-dimethyl-5,6,7,8-tetrahydro-5,8-methanocinnoline], the IC50 worked out at 789 nM. `CC1(C)[C@@H]2CC[C@@]1(Cn1cccn1)c1nnc(-c3ccccc3F)cc12` [Example 27, (5S,8R)-3-(2-fluorophenyl)-9,9-dimethyl-8-(1H-pyrazol-1-ylmethyl)-5,6,7,8-tetrahydro-5,8-methanocinnoline]: the half-inhibitory concentration (IC50) stood at 366 nM.

`COC[C@@]12CC[C@@H](c3cc(-c4ccccc4F)nnc31)C2(C)C` [Example 28, (5R,8R)-3-(2-fluorophenyl)-8-(methoxymethyl)-9,9-dimethyl-5,6,7,8-tetrahydro-5,8-methanocinnoline]: the IC50 came to 210 nM. The figure for `COC[C@@]12CC[C@@H](c3cc(-c4c(F)cccc4Cl)nnc31)C2(C)C` [Example 29, (5R,8R)-3-(2-chloro-6-fluorophenyl)-8-(methoxymethyl)-9,9-dimethyl-5,6,7,8-tetrahydro-5,8-methanocinnoline] is 41 nM; for `COC[C@@]12CC[C@@H](c3cc(-c4c(F)cccc4F)nnc31)C2(C)C` [Example 30, (5R,8R)-3-(2,6-difluorophenyl)-8-(methoxymethyl)-9,9-dimethyl-5,6,7,8-tetrahydro-5,8-methanocinnoline] it is 45 nM; for `CC1(C)[C@H]2C[C@@H](F)[C@]1(C)c1nnc(-c3ccccc3F)cc12` [Example 31, (5R,7R,8S)-7-fluoro-3-(2-fluorophenyl)-8,9,9-trimethyl-5,6,7,8-tetrahydro-5,8-methanocinnoline] it is 2130 nM. To `CC1(C)[C@@H]2C[C@H](F)[C@@]1(C)c1nnc(-c3ccccc3F)cc12` [Example 32, (5S,7S,8R)-7-fluoro-3-(2-fluorophenyl)-8,9,9-trimethyl-5,6,7,8-tetrahydro-5,8-methanocinnoline] belongs 969 nM.
